In one series the test system is NEP. The series is described as follows: NEP gene expression analysis by real-time PCR in dermal fibroblasts. The conditions noted are these: Homo sapiens, NB1RGB, 48 h, read-out: NEP gene expression level. It is filed as cell-based. Here is the method: (§1) As the control, a medium not comprising these components was used.
(§2) RNA concentrations were calculated using OD260 and diluted with TE Buffer to adjust the RNA concentrations to 10 μg/mL.
(§3) Reverse transcription of RNA was carried out using SuperScript™ IV VILO™ Master Mix with ezDNase (Cat No. 11766050, Invitrogen, USA). 4 μL of SuperScript™ IV VILO™ Master Mix and 6 μL of Nuclease-free Water were added per well in an 8-tube strip and heated at 25° C. for 10 min, 50° C. for 10 min, and 85° C. for 5 min using real-time PCR (QuantStudio (registered trademark) 3, Applied Biosystems, USA) to synthesize cDNA. 10 μL of TaqMan (registered trademark) Fast Advanced Master Mix (Cat No. 4444557, Applied Biosystems, USA), 1 μL of TaqMan Gene Expression, 7 μL of UltraPure™ Distilled Water (Invitrogen, Cat No. 10977-015, USA), and 2 μL of cDNA were added per well in a PCR plate and sealed. A primer (Hs00899658_ml) for MMP-1 and a primer (Hs00153510_ml) for NEP; and a primer (Hs02786624_g1) for GAPDH as an internal standard gene; were used to carry out real-time qPCR, the threshold cycle (Ct) value of each of the MMP-1 gene and the NEP gene in the medium supplemented with each component was calculated, and then Ct value was corrected with GAPDH to obtain a ΔCt value. Assuming that gene level doubles per cycle, when gene expression level of the control was set at 1, the gene expression level in the medium supplemented with each component was determined. In the analysis of gene expression level, the average value of 24-well plate×3 wells was used for each treatment group.

Another series deals with MMP-1. Kind of series: MMP-1 gene expression analysis by real-time PCR in dermal fibroblasts. It is filed as cell-based. The note with it: Homo sapiens, NB1RGB, 48 h, read-out: MMP-1 gene expression level. Here is the method: as §1, §2, §3
(Quantitative PCR measures a nucleic acid by following its amplification.)

The test system of series [1] is human neonatal dermal fibroblast cell line NB1RGB.
Experimental: After 24 h, the medium was removed and replaced with a medium to which citronellol (CAS number: 106-22-9, Wako Pure Chemical Industries, Ltd.) was added so as to have the final concentration shown in Table 3 below, and the cells were further cultured within the CO2 incubator for 48 h. As the control, a medium not comprising citronellol was used.
According to the following method, the effect of citronellol on proliferation of dermal fibroblasts was evaluated.
A 96-well plate from which the medium was removed was washed with 100 μL of PBS(−). 100 μL of 0.5 mg/mL 3-(4,5-dimethylthiazol-2-yl)-2,5-diphenyltetrazolium bromide (MTT, CAS No. 298-93-1, Sigma-Aldrich, USA) solution was then added and incubated within a CO2 incubator for 2 h. After removing the MTT solution and washing with 100 μL of PBS(−), 200 μL of 2-propanol (CAS No. 67-63-0, Wako, Japan) was added to dissolve the insoluble formazan. A dye was uniformly dispersed within the 96-well plate, and then absorbance (OD570) at 570 nm was measured using a microplate reader (SPARK (registered trademark), 10M TECAN, Switzerland). Setting OD570 of the control group at 100%, OD570 of the citronellol-added group, i.e., the effect on cell proliferation, was calculated as the cell-activating effect (%) of citronellol. In the analysis of cell-activating effect, the average value of 96-well plate 9×3 wells was used for each treatment group.
A further series deals with Type I collagen. Kind of series: Collagen production rate in culture supernatant by sandwich ELISA. Type of series: cell-based. The note with it: Homo sapiens, NB1RGB fibroblasts, 48 h, OD405/OD570, no-addition group = 100, read-out: Collagen production rate (%) per cell. Here is the method:
A supernatant of the culture cultured in 2-1 was dispensed into a new 96-well plate and frozen for storage (−80° C.). The collagen production rate in the culture supernatant was measured by sandwich ELISA, and the effect of citronellol on the collagen level was evaluated.
100 μL of culture supernatant diluted 4-fold with PBS(−) was added to a high-binding 96-well plate, and incubated overnight at 4° C. Type I collagen solution (Cat No. 009-001-103, RCK, USA) was used as a standard substance. […] The dye was uniformized within the 96-well plate, and then absorbance (OD405) at 405 nm was measured using a microplate reader.
Setting OD405 of the control group at 100%, the collagen production rate of citronellol was calculated. In addition, the OD405 of the control and citronellol were each divided by OD570 measured in 2-2 to calculate the collagen production rate per cell. Setting the collagen production rate per cell in the control group at 100%, the collagen production rate of citronellol per cell was calculated.

For the compound `CCCCCOC(=O)CCC` [Amyl butyrate], the fold induction at 50 µM in the series on NEP is 0.43; in the series with MMP-1, 0.24.

Consider `CC(C)=CCCC(C)CCO` (stereo not shown) [Citronellol], for which the fold induction at 50 µM in the series with NEP was 0.85; with MMP-1, 0.25. For the same compound, the “cell-activating effect / toxicity (proliferation of fibroblasts, MTT)” value in series [1] is on record as “no cell-activating effect or toxicity”. For the same compound, the activity at 50 µM with Type I collagen was determined as 102%.

Consider `CC(C)=CCCC(C)=CCCC(C)=CCO` [Farnesol], for which the results for the fold induction at 50 µM in the series on NEP and with MMP-1 were 0.44 and 0.22, respectively.

For `c1ccc2[nH]ccc2c1` [Indole], the fold induction at 50 µM with NEP stood at 0.4; in the series on MMP-1 it was 0.36.

The record behind these values is patent US20260283917A1, “ANTI-WRINKLE AGENT” (SHISEIDO COMPANY, LTD., priority 2023, published 2026).
